Data from patent US20060211698A1, “Bicyclic heteroaryl derivatives for treating viruses” (Genelabs, Inc., priority 2005, published 2006).

Biological target: T1, HCV-NS5b (Hepatitis C virus genotype 1b, UniProt Q9WMX2)
T1 construct: The cloned fragment was missing the C terminus 21 amino acid residues; (His)6 (C); made in house; host or cells: XL-1 cells (E. coli)
Experiment: HCV-NS5b Enzyme Assay
Format: biochemical
Conditions: 1 μM test compound; incorporation of [3H]-UTP, 37° C., 2 hours
Source text: The coding sequence of NS5b protein was cloned by PCR from pFKI389luc/NS3-3′/ET as described by Lohmann, V., et al. (1999) Science 285, 110-113 using the following primers: • […] (SEQ. ID. NO. 1) • […] (SEQ. ID. NO. 2)
The cloned fragment was missing the C terminus 21 amino acid residues. The cloned fragment is inserted into an IPTG-inducible expression plasmid that provides an epitope tag (His)6 at the carboxy terminus of the protein.
The recombinant enzyme was expressed in XL-1 cells and after induction of expression, the protein was purified using affinity chromatography on a nickel-NTA column. Storage condition is 10 mM Tris-HCl pH 7.5, 50 mM NaCl, 0.1 mM EDTA, 1 mM DTT, 20% glycerol at −20° C.
The polymerase activity was assayed by measuring incorporation of radiolabeled UTP into a RNA product using a biotinylated, heteropolymeric template, which includes a portion of the HCV genome. Typically, the assay mixture […] contains 10 mM Tris-HCl (pH 7.5), 5 mM MgCl2, 0.2 mM EDTA, 10 mM KCl, 1 unit/μL RNAsin. 1 mM DTT, 10 μM each of NTP, including [^3H]-UTP, and 10 ng/μL biotinylated heteropolymeric template. 20× test compound in 2 μl's was then added as a 100% DMSO solution to achieve a final DMSO concentration of 5%. For IC50 determination a 10-point dose response was used. The compounds were serial diluted 2-fold […]. Typically for IC50's, compounds were tested starting at 50 uM or 2 μm depending on the potency. Reactions were started with addition of 10×NS5B in 4 μl's and allowed to incubate at 37° C. for 2 hours. Reactions were quenched with 8 μL of 100 mM EDTA and reaction mixtures (30 μL) were transferred to streptavidin-coated scintillation proximity microtiter plates (FlashPlates) and incubated at 4° C. overnight. Incorporation of radioactivity was determined by scintillation counting (cpm). The % Inhibition at a particular concentration was determined using the following equation, % Inhibition=100−[100*(cpm with inhibitor−bg)/(cpm with no inhibitor−bg)] where bg was the background with no enzyme.

SMILES | inhibition at 1 µM | % inhibition @ 1 μM
Cc1cc(-c2ccc3cc(-c4c(C5CCCCC5)c5ccc(C(=O)O)cc5n4CC(=O)N4CCOCC4)ccc3n2)c(C)s1 [Compound 258, 3-Cyclohexyl-2-[2-(2,5-dimethyl-thiophen-3-yl)-quinolin-6-yl]-1-(2-morpholin-4-yl-2-oxo-ethyl)-1H-indole-6-carboxylic acid] | 97.4% | 
COc1ccc(-c2ccc(Cl)cc2)c(-c2ccc3cc(-c4c(C5CCCCC5)c5ccc(C(=O)O)cc5n4CC(=O)N4CCOCC4)ccc3n2)c1 [Compound 203, 1-[N-morpholinocarbonylmethyl]-2-[2-(4′-chloro-4-methoxy-biphen-2-yl)-quinolin-6-yl]-3-cyclohexyl-1H-indole-6-carboxylic acid] | 98.7% | 
N#Cc1ccc(-c2ccc(-c3c(C4CCCCC4)c4ccc(C(=O)O)cc4n3CC(=O)N3CCOCC3)cc2)cc1 [Compound 307, 2-(4′-Cyano-biphenyl-4-yl)-3-cyclohexyl-1-(2-morpholin-4-yl-2-oxo-ethyl)-1H-indole-6-carboxylic acid] | 97.4% | 
O=C(O)c1ccc2c(C3CCCCC3)c(-c3ccc4ncc(-c5ccccc5)cc4c3)n(CC(=O)N3CCOCC3)c2c1 [Compound 327, 3-Cyclohexyl-1-(2-morpholin-4-yl-2-oxo-ethyl)-2-(3-phenyl-quinolin-6-yl)-1H-indole-6-carboxylic acid] | 96.3% | 
Cc1nc(C)c(-c2ccc3cc(-c4c(C5CCCCC5)c5ccc(C(=O)O)cc5n4CC(=O)N4CCOCC4)ccc3n2)s1 [Compound 210, 1-[N-morpholinocarbonylmethyl]-2-[2-(2,4-dimethylthiazol-5-yl)-quinolin-6-yl]-3-cyclohexyl-1H-indole-6-carboxylic acid] | 97.3% | 
Cc1nc(C)c(-c2ccc3cc(-c4c(C5CCCCC5)c5ccc(C#N)cc5n4CC(=O)N4CCOCC4)ccc3n2)s1 [Compound 243, 3-Cyclohexyl-2-[2-(2,4-dimethyl-thiazol-5-yl)-quinolin-6-yl]-1-(2-morpholin-4-yl-2-oxo-ethyl)-1H-indole-6-carbonitrile] | 37.8% | 
Cc1nc(C)c(-c2ccc3cc(-c4c(C5CCCCC5)c5ccc(C(=O)O)cc5n4CC(=O)N4CCC(N5CCCC5)CC4)ccc3n2)s1 [Compound 214, 1-[2-oxo-2-(4-pyrrolidin-1-yl-piperidin-1-yl)-ethyl]-2-[2-(2,4-dimethylthiazol-5-yl)-quinolin-6-yl]-3-cyclohexyl-1H-indole-6-carboxylic acid] | 92.1% | 
O=C(O)c1ccc2c(C3CCCCC3)c(-c3ccc4nc(-c5ccc(Cl)s5)ccc4c3)n(CC(=O)N3CCOCC3)c2c1 [Compound 225, 1-[N-morpholinocarbonylmethyl]-2-[2-(5-chlorothien-2-yl)quinolin-6-yl]-3-cyclohexyl-1H-indole-6-carboxylic acid] |  | 98.0%
O=C(O)c1ccc2c(C3CCCCC3)c(-c3ccc4nc(-c5ccc(-n6ccnc6)cc5)ccc4c3)n(CC(=O)N3CCOCC3)c2c1 [Compound 209, 1-[N-morpholinocarbonylmethyl]-2-[2-(4-(1H-imidazolyl)phenyl)-quinolin-6-yl]-3-cyclohexyl-1H-indole-6-carboxylic acid] |  | 98.5%
Cc1nc(C)c(-c2ccc3cc(-c4c(C5CCCCC5)c5ccc(C(=O)O)cc5n4CC(=O)NCCN4CCOCC4)ccc3n2)s1 [Compound 237, 3-Cyclohexyl-2-[2-(2,4-dimethyl-thiazol-5-yl)-quinolin-6-yl]-1-[(2-morpholin-4-yl-ethylcarbamoyl)-methyl]-1H-indole-6-carboxylic acid] | 94.7% | 
Cc1cccc(-c2ccc3cc(-c4c(C5CCCCC5)c5ccc(C(=O)O)cc5n4CC(=O)N4CCOCC4)ccc3n2)c1 [Compound 231, 3-Cyclohexyl-1-(2-morpholin-4-yl-2-oxo-ethyl)-2-(2-m-tolyl-quinolin-6-yl)-1H-indole-6-carboxylic acid] | 98.7% | 
Cn1cccc1-c1ccc2cc(-c3c(C4CCCCC4)c4ccc(C(=O)O)cc4n3CC(=O)N3CCOCC3)ccc2n1 [Compound 271, 3-Cyclohexyl-2-[2-(1-methyl-1H-pyrrol-2-yl)-quinolin-6-yl]-1-(2-morpholin-4-yl-2-oxo-ethyl)-1H-indole-6-carboxylic acid] | 100% | 
Cc1nc(C)c(-c2ccc3cc(-c4c(C5CCCCC5)c5ccc(C(=O)O)cc5n4Cc4ccncc4)ccc3n2)s1 [Compound 289, 3-Cyclohexyl-2-[2-(2,4-dimethyl-thiazol-5-yl)-quinolin-6-yl]-1-pyridin-4-ylmethyl-1H-indole-6-carboxylic acid] | 95.7% | 
COc1cc(OC)cc(-c2ccc3cc(-c4c(C5CCCCC5)c5ccc(C(=O)O)cc5n4CC(=O)N4CCOCC4)ccc3n2)c1 [Compound 251, 3-Cyclohexyl-2-[2-(3,5-dimethoxy-phenyl)-quinolin-6-yl]-1-(2-morpholin-4-yl-2-oxo-ethyl)-1H-indole-6-carboxylic acid] | 98.5% | 
Cc1nc(C)c(-c2ccc3cc(-c4c(C5CCCCC5)c5ccc(C(=O)O)cc5n4CC(=O)Nc4nn[nH]n4)ccc3n2)s1 [Compound 239, 3-Cyclohexyl-2-[2-(2,4-dimethyl-thiazol-5-yl)-quinolin-6-yl]-1-[(2H-tetrazol-5-ylcarbamoyl)-methyl]-1H-indole-6-carboxylic acid] | 96.9% | 
COc1ccccc1-c1ccc(-c2c(C3CCCCC3)c3ccc(C(=O)O)cc3n2CC(=O)N2CCOCC2)cc1 [Compound 311, 3-Cyclohexyl-2-(2′-methoxy-biphenyl-4-yl)-1-(2-morpholin-4-yl-2-oxo-ethyl)-1H-indole-6-carboxylic acid] | 102% | 
O=C(O)c1ccc2c(C3CCCCC3)c(-c3ccc(-c4cccnc4F)cc3)n(CC(=O)N3CCOCC3)c2c1 [Compound 303, 3-Cyclohexyl-2-[4-(2-fluoro-pyridin-3-yl)-phenyl]-1-(2-morpholin-4-yl-2-oxo-ethyl)-1H-indole-6-carboxylic acid] | 98% | 
Cc1nc(C)c(-c2ccc3cc(-c4c(C5CCCCC5)c5ccc(C(=O)NS(C)(=O)=O)cc5n4CC(=O)N4CCOCC4)ccc3n2)s1 [Compound 240, N-[3-Cyclohexyl-2-[2-(2,4-dimethyl-thiazol-5-yl)-quinolin-6-yl]-1-(2-morpholin-4-yl-2-oxo-ethyl)-1H-indole-6-carbonyl]-methanesulfonamide] | 97.7% | 
Cc1ccc(-c2ccc3cc(-c4c(C5CCCCC5)c5ccc(C(=O)O)cc5n4CC(=O)N4CCOCC4)ccc3n2)cc1 [Compound 252, 3-Cyclohexyl-1-(2-morpholin-4-yl-2-oxo-ethyl)-2-(2-p-tolyl-quinolin-6-yl)-1H-indole-6-carboxylic acid] | 95% | 
Cc1nc(C)c(-c2ccc3cc(-c4c(C5CCCCC5)c5ccc(C(=O)O)cc5n4CC(=O)N4CCC(N(C)C)CC4)ccc3n2)s1 [Compound 274, 3-Cyclohexyl-1-[2-(4-dimethylamino-piperidin-1-yl)-2-oxo-ethyl]-2-[2-(2,4-dimethyl-thiazol-5-yl)-quinolin-6-yl]-1H-indole-6-carboxylic acid] | 96% | 
Cc1nc(C)c(-c2ccc3cc(-c4[nH]c5c(C)c(C(=O)O)ccc5c4C4CCCCC4)ccc3n2)s1 [Compound 334, 3-Cyclohexyl-2-[2-(2,4-dimethyl-thiazol-5-yl)-quinolin-6-yl]-7-methyl-1H-indole-6-carboxylic acid] | 86.9% | 
Cc1nc(C)c(-c2ccc3cc(-c4c(C5CCCCC5)c5ccc(-c6nnn[nH]6)cc5n4CC(=O)N4CCOCC4)ccc3n2)s1 [Compound 244, 2-[3-Cyclohexyl-2-[2-(2,4-dimethyl-thiazol-5-yl)-quinolin-6-yl]-6-(1H-tetrazol-5-yl)-indol-1-yl]-1-morpholin-4-yl-ethanone] | 97.2% | 
COc1ccc(-c2ccc(Cl)cc2)c(-c2ccc3cc(-c4c(C5CCCCC5)c5ccc(C(=O)O)cc5n4CC(=O)N(C)C)ccc3n2)c1 [Compound 206, 1-[N,N-dimethylaminocarbonyl-methyl]-2-[2-(4′-chloro-4-methoxy-biphen-2-yl)-quinolin-6-yl]-3-cyclohexyl-1H-indole-6carboxylic acid] | 99% | 
COc1ccccc1-c1ccc2cc(-c3c(C4CCCCC4)c4ccc(C(=O)O)cc4n3CC(=O)N3CCOCC3)ccc2n1 [Compound 233, 3-Cyclohexyl-2-[2-(2-methoxy-phenyl)-quinolin-6-yl]-1-(2-morpholin-4-yl-2-oxo-ethyl)-1H-indole-6-carboxylic acid] | 95.7% | 
